# Laboratory results: US20060045953A1 (priority 2004, published 2006)
# Biological target: T1, hT1R1/hT1R3 umami receptor (Homo sapiens, UniProt Q7RTX0+Q7RTX1)
# T1 construct: expressed in transfected cells; host or cells: HEK293 derivative stably expressing Gα15, clone I-17, expression induced with mifepristone
# T1 sequence (Q7RTX1 21-841): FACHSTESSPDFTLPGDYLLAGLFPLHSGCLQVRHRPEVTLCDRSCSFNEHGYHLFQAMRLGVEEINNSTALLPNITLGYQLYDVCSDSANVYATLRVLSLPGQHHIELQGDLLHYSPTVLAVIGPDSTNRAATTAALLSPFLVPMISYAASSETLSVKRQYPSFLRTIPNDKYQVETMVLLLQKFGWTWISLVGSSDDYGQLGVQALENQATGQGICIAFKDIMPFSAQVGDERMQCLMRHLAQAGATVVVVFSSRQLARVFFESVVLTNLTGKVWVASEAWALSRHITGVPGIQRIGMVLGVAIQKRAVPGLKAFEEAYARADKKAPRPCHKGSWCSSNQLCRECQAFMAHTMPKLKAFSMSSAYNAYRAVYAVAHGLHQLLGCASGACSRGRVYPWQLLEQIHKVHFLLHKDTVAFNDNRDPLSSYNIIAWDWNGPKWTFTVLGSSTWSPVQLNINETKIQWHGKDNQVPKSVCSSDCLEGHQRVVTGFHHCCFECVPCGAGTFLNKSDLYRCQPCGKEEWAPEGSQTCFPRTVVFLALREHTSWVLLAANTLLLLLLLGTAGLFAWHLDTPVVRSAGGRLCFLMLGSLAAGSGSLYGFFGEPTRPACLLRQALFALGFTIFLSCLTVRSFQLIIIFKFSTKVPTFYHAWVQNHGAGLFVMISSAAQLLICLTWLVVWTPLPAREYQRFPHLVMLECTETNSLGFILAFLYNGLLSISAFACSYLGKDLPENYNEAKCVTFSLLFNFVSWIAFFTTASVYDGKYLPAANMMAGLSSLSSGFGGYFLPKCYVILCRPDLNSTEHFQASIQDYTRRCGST
# T1 sequence (Q7RTX0 21-852): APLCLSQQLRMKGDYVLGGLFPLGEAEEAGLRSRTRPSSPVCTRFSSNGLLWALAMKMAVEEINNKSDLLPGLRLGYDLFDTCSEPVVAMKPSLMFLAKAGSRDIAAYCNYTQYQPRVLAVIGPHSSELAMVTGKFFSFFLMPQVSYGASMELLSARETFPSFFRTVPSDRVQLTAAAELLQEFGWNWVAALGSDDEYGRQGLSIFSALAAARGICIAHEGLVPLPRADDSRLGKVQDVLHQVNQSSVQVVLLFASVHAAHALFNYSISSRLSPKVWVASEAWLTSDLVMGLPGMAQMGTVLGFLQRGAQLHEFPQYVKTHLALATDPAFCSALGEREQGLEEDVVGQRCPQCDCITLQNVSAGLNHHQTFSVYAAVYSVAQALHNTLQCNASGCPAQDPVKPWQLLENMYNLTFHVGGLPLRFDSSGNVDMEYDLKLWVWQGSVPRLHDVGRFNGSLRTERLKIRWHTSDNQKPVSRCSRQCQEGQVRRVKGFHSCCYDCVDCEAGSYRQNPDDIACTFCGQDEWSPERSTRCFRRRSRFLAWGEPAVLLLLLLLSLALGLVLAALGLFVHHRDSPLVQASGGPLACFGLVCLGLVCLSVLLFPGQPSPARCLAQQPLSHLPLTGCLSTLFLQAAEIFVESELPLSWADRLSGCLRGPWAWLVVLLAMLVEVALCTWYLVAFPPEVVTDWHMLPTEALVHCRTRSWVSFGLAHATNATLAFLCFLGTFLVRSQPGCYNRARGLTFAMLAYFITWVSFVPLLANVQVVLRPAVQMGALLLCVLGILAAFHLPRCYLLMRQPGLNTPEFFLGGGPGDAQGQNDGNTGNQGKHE
# Test: In vitro hT1R1/hT1R3 umami taste receptor activation assay (FLIPR, dose response)
# Type: cell-based
# Conditions: Table A, Umami Amides; read-out: Umami EC50
row,Structure (SMILES),EC50
1,"COc1ccc([C@@H](C)NC(=O)c2ccc(OC)c(Cl)c2)cc1 [Example A89, (R)-3-chloro-4-methoxy-N-(1-(4-methoxyphenyl)ethyl)benzamide]",0.6 µM
2,"CCCC(CCC)NC(=O)c1cccc(OC)c1 [Example A90, N-(heptan-4-yl)-3-methoxybenzamide]",0.61 µM
3,"CCCc1ccc(C(=O)N[C@H](CC(C)C)C(=O)OC)cc1 [Example A91, (R)-methyl 4-methyl-2-(4-propylbenzamido)pentanoate]",0.62 µM
4,"CCCC(CC(C)C)NC(=O)c1ccc(OCC)c(C)c1 (centres unmarked) [Example A92, 4-ethoxy-3-methyl-N-(2-methylheptan-4-yl)benzamide]",0.65 µM
5,"COc1cccc(C(=O)N[C@H]2CCCc3ccccc32)c1O [Example A93, (S)-2-hydroxy-3-methoxy-N-(1,2,3,4-tetrahydronaphthalen-1-yl)benzamide]",0.7 µM
6,"COC[C@H](NC(=O)c1ccc(OC)c(C)c1)c1ccccc1 [Example A94, (R)-4-methoxy-N-(2-methoxy-1-phenylethyl)-3-methylbenzamide]",0.72 µM
7,"COC(=O)[C@@H](CC(C)C)NC(=O)c1cc(C)c(OC)c(C)c1 [Example A95, (R)-methyl 2-(4-methoxy-3,5-dimethylbenzamido)-4-methylpentanoate]",0.74 µM
8,"CCC(NC(=O)c1ccc(OC)c(C)c1)c1ccc(OC)cc1 (centres unmarked) [Example A96, 4-methoxy-N-(1-(4-methoxyphenyl)propyl)-3-methylbenzamide]",0.76 µM
9,"CCCC(COC)NC(=O)c1ccc(OC)c(C)c1 (centres unmarked) [Example A97, 4-methoxy-N-(1-methoxypentan-2-yl)-3-methylbenzamide]",0.85 µM
10,"COc1ccc(C(=O)NC(CO)CC(C)C)cc1Cl (centres unmarked) [Example A98, 3-chloro-N-(1-hydroxy-4-methylpentan-2-yl)-4-methoxybenzamide]",0.88 µM
11,"COC(=O)[C@@H](CC(C)C)NC(=O)c1cccc(C)c1 [Example A99, (R)-methyl 4-methyl-2-(3-methylbenzamido)pentanoate]",0.89 µM
12,"COc1ccc(C(=O)NC(C)c2ccc(C)cc2)cc1Cl (centres unmarked) [Example A100, 3-chloro-4-methoxy-N-(1-p-tolylethyl)benzamide]",1.1 µM
13,"CCCC(CCC)NC(=O)c1ccc(OC)cc1O [Example A101, N-(heptan-4-yl)-2-hydroxy-4-methoxybenzamide]",1.16 µM
14,"Cc1cc(C(=O)NC2CCCc3ccccc32)ccc1O (centres unmarked) [Example A102, 4-hydroxy-3-methyl-N-(1,2,3,4-tetrahydronaphthalen-1-yl)benzamide]",1.32 µM
15,"CCOC(=O)[C@H]1CCCC[C@H]1NC(=O)c1ccc(OC)c(Cl)c1 [Example A103, (1S,2R)-ethyl 2-(3-chloro-4-methoxybenzamido)cyclohexanecarboxylate]",1.36 µM
16,"COc1ccc(CNC(=O)c2ccccc2-c2ccccc2)c(OC)c1 [Example A104, Biphenyl-2-carboxylic acid 2,4-dimethoxy-benzylamide]",1.37 µM
17,"C=Cc1ccc(C(=O)N[C@H]2CCCc3ccccc32)cc1 [Example A105, (S)-N-(1,2,3,4-tetrahydronaphthalen-1-yl)-4-vinylbenzamide]",1.38 µM
18,"COc1ccc(C(=O)NC2CCc3ccccc32)cc1Cl (centres unmarked) [Example A106, 3-chloro-N-(2,3-dihydro-1H-inden-1-yl)-4-methoxybenzamide]",1.39 µM
19,"Cc1cc(C(=O)N[C@H]2CCc3ccccc32)ccc1O [Example A111, (S)-N-(2,3-dihydro-1H-inden-1-yl)-4-hydroxy-3-methylbenzamide]",0.66 µM
20,"Cc1ccc(C(=O)N[C@H]2CCc3ccccc32)cc1C [Example A112, (S)-N-(2,3-dihydro-1H-inden-1-yl) 3,4-dimethylbenzamide]",0.79 µM
21,"CCOc1ccc(C(=O)N[C@H]2CCc3ccccc32)cc1C [Example A113, (S)-N-(2,3-dihydro-1H-inden-1-yl)-4-ethoxy-3-methylbenzamide]",0.85 µM
22,"COc1cc(C(=O)N[C@@H]2CCCc3ccccc32)nc(OC)n1 [Example A114, (R)-2,6-dimethoxy-N-(1,2,3,4-tetrahydronaphthalen-1-yl)pyrimidine 4-carboxamide]",2.35 µM
23,"O=C(N[C@H]1CCOc2ccccc21)c1cccc(Cl)c1O [Example A115, (s)-3-chloro-N-(chroman-4-yl)-2-hydroxybenzamide]",5 µM
24,"COc1ccc(C(=O)NC2CCc3cccc(C)c32)cc1C (centres unmarked) [Example A129, 4-methoxy-3-methyl-N-(7-methyl-2,3-dihydro-1H-inden-1-yl)benzamide]",1.03 µM

# The next compounds have a lower EC50 than those just listed; values first:
row,EC50,Structure (SMILES)
1,0.51 µM,"CCCC(CCC)NC(=O)c1coc2ccccc12 [Example A123, N-(heptan-4-yl)benzofuran-3-carboxamide]"
2,0.4 µM,"CCCC(CCC)NC(=O)c1ccc(-c2cnco2)cc1 [Example A128, N-(heptan-4-yl)-4-(oxazol-5-yl)benzamide]"
3,0.3 µM,"COc1ccc2c(c1)CCC2NC(=O)c1ccc(O)c(C)c1 (centres unmarked) [Example A110, 4-hydroxy-N-(5-methoxy-2,3-dihydro-1H-inden-1-yl)-3-methylbenzamide]"
4,0.22 µM,"CCCC(CCC)NC(=O)c1cc(OC)nc(OC)n1 [Example A122, N-(heptan-4-yl)-2,6-dimethoxypyrimidine-4-carboxamide]"
5,0.15 µM,"CCCC(CCC)NC(=O)c1cc2c(s1)CCC2 [Example A121, N-(heptan-4-yl)-5,6-dihydro-4H-cyclopenta[b]thiophene-2-carboxamide]"
6,0.14 µM,"CCCC(CCC)NC(=O)c1cccc(C)c1N [Example A127, 2-amino-N-(heptan-4-yl)-3-methylbenzamide]"
7,0.09 µM,"COc1cccc(C(=O)N[C@@H]2CCCc3ccccc32)c1N [Example A108, (R)-2-amino-3-methoxy-N-(1,2,3,4-tetrahydronaplithalen-1-yl)benzamide]"
8,0.08 µM,"COc1ccc(C(=O)N[C@H]2CCCc3ccccc32)cc1C [Example A109, (S)-4-methoxy-3-methyl-N-(1,2,3,4-tetrahydronaphthalen-1-yl)benzamide]"
9,0.08 µM,"CCCC(CCC)NC(=O)c1ccc(OC)c([N+](=O)[O-])c1 [Example A120, N-(heptan-4-yl)-4-methoxy-3-nitrobenzamide]"
10,0.07 µM,"COc1ccc2c(c1)CCCC2NC(=O)c1cccc(OC)c1N (centres unmarked) [Example A107, 2-amino-3-methoxy-N-(6-methoxy-1,2,3,4-tetrahydronaphthalen-1-yl)benzamide]"
11,0.05 µM,"CCCC(CCC)NC(=O)c1ccc2c(c1)NCCC2 [Example A119, N-(heptan-4-yl)-1,2,3,4-tetrahydroguinoline-7-carboxamide]"
12,0.04 µM,"COc1ccc2c(c1)CCC2NC(=O)c1cccc(OC)c1N (centres unmarked) [Example A126, 2-amino-3-methoxy-N-(5-methoxy-2,3-dihydro-1H-inden-1-yl)benzamide]"
13,0.03 µM,"CCCC(CCC)NC(=O)c1cc(COC)c(CC)o1 [Example A117, 5-ethyl-N-(heptan-4-yl)-4-(methoxymethyl)furan-2-carboxamide]"
14,0.03 µM,"CCCC(CCC)NC(=O)c1cccc(SC)c1 [Example A118, N-(heptan-4-yl)-3-(methylthio)benzamide]"
15,0.02 µM,"COc1cccc(C(=O)NC2CCCCC2C)c1N (centres unmarked) [Example A125, 2-amino-3-methoxy-N-(2-methylcyclohexyl)benzamide]"
16,0.01 µM,"CCCC(CCC)NC(=O)c1cccc(CC)c1 [Example A116, 3-ethyl-N-(heptan-4-yl)benzamide]"
17,0.01 µM,"Cc1ccc(C(=O)NC2CCCCC2C)cc1C (centres unmarked) [Example A124, 3,4-dimethyl-N-(2-methylcyclohexyl)benzamide]"
